Laboratory results from patent US20130225523A1, “GLYCODENDRIMERS OF POLYPROPYLETHERIMINE” (priority 2010, published 2013).

System: pro-inflammatory cytokines such as IL-6, IL-1 beta, TNF-alpha and MIP-1 beta
Test: Effect of unconjugated components on pro-inflammatory cytokines
Format: cell-based
Settings: even at high doses

## N[C@H]1C(O)O[C@H](CO)[C@@H](O)[C@@H]1O (stereo partly shown) [glucosamine]
  effect on pro-inflammatory cytokines such as IL-6, IL-1 beta, TNF-alpha and MIP-1 beta: no effect
